Laboratory results published in US9012651B2, “TRPV3 modulators” (AbbVie Inc., priority 2011, dated 2015).

Molecular target: human TRPV3 receptors (Homo sapiens (Human), UniProt Q8NET8)
Experiment: Calcium flux assay (FLIPR TETRA), inhibition of the 2-APB response
Format: cell-based
Settings: recombinant HEK293 cells stably expressing TRPV3, Calcium-4 dye, 2-APB at its EC80
Protocol: (i) In Vitro Methods-Calcium Flux Assays:
Experiments were conducted using the FLIPR^TETRA®. On the day prior to the experiment, recombinant HEK293 cells that stably express human and mouse TRPV3 were removed from tissue culture flasks and plated in growth medium at 20,000 cells/well into black-walled clear-bottom 384-well Biocoat™ poly-D-lysine assay plates (BD Biosciences, Bedford, Mass.) using a Multidrop® dispenser (ThermoScientific, Waltham, Mass.). […] Cells were incubated for 90-120 minutes in the dark. Compounds were dissolved in DMSO to prepare a 10 mM stock solution. The intensity of the fluorescence was captured and digitally transferred to an interfaced PC. The peak increase in fluorescence over baseline (relative fluorescence units) was calculated and expressed as the percentage of the maximal 2-APB (2-aminoethoxyldiphenyl borate) response (in the absence of compound).

Sequence of human TRPV3 receptors (Q8NET8 whole entry): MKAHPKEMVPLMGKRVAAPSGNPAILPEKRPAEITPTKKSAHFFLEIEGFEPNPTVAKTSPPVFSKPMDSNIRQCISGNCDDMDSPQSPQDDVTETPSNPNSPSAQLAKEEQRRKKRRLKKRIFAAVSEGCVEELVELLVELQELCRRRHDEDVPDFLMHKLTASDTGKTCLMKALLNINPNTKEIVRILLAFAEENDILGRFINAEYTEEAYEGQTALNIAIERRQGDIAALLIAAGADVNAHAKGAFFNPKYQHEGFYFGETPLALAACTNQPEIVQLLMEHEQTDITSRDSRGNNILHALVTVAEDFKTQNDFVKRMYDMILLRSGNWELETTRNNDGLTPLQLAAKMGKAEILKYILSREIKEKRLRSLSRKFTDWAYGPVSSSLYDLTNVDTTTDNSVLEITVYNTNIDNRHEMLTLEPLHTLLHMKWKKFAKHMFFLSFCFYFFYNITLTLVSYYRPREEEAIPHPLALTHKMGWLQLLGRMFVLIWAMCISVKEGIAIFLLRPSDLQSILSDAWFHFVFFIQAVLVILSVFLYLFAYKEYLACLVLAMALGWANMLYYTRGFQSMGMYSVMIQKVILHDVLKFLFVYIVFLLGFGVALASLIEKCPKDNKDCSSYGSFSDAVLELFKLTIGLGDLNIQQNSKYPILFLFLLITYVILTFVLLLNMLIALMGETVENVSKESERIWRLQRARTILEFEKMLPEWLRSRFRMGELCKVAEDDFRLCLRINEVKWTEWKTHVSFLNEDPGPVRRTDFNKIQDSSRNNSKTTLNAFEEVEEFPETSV

Row | Compound | IC50
1 | OC[C@H](NCc1ccnc(-c2ccc(C(F)(F)F)cc2)n1)C1CC1 [Example 145, (2R)-2-cyclopropyl-2-[({2-[4-(trifluoromethyl)phenyl]pyrimidin-4-yl}methyl)amino]ethanol] | 3.05 µM
2 | OC[C@@H]1[C@@H]2CC[C@@H](C2)[C@@H]1NCc1cccc(-c2ccc(C(F)(F)F)cc2)n1 [Example 9, {(1R,2R,3S,4S)-3-[({6-[4-(trifluoromethyl)phenyl]pyridin-2-yl}methyl)amino]bicyclo[2.2.1]heptan-2-yl}methanol] | 3.65 µM
3 | CC(C)[C@H](CO)NCc1nc(-c2ccoc2)ccc1F [Example 251, (2R)-2-({[3-fluoro-6-(furan-3-yl)pyridin-2-yl]methyl}amino)-3-methylbutan-1-ol] | 0.58 µM
4 | CC(C)[C@H](CO)NCc1nc(-c2ccc3c(ccn3C)c2)ccc1F [Example 248, (2R)-2-({[3-fluoro-6-(1-methyl-1H-indol-5-yl)pyridin-2-yl]methyl}amino)-3-methylbutan-1-ol] | 1.44 µM
5 | OCC1(NCc2ccnc(-c3ccc(C(F)(F)F)cc3)n2)CC1 [Example 135, {1-[({2-[4-(trifluoromethyl)phenyl]pyrimidin-4-yl}methyl)amino]cyclopropyl}methanol] | > 20 µM
6 | CC[C@H](CO)NCc1ccnc(-c2ccc(C(F)(F)F)nc2)n1 [Example 186, (2R)-2-[({2-[6-(trifluoromethyl)pyridin-3-yl]pyrimidin-4-yl}methyl)amino]butan-1-ol] | > 20 µM
7 | OC[C@H](NCc1nc(-c2ccc(C(F)(F)F)nc2)ccc1F)C1CC1 [Example 75, (2R)-2-cyclopropyl-2-({[5-fluoro-6′-(trifluoromethyl)-2,3′-bipyridin-6-yl]methyl}amino)ethanol] | 3.02 µM
8 | CC(C)[C@H](CO)NCc1cccc(OCc2ccccc2)n1 [Example 12, (2R)-2-({[6-(benzyloxy)pyridin-2-yl]methyl}amino)-3-methylbutan-1-ol] | 0.91 µM
9 | CC(C)[C@H](CO)NCc1nc(-c2ccc(F)c(C(F)(F)F)c2)ccc1F [Example 281, (2R)-2-[({3-fluoro-6-[4-fluoro-3-(trifluoromethyl)phenyl]pyridin-2-yl}methyl)amino]-3-methylbutan-1-ol] | 0.39 µM
10 | CC(C)[C@H](CO)NCc1nc(-c2cccc(S(=O)(=O)N(C)C)c2)ccc1F [Example 39, 3-[5-fluoro-6-({[(2R)-1-hydroxy-3-methylbutan-2-yl]amino}methyl)pyridin-2-yl]-N,N-dimethylbenzenesulfonamide] | 1.7 µM
11 | CC(C)[C@H](CO)NCc1nc(-c2cccc(F)c2)ccc1F [Example 14, (2R)-2-({[3-fluoro-6-(3-fluorophenyl)pyridin-2-yl]methyl}amino)-3-methylbutan-1-ol] | 0.81 µM
12 | COCC(CO)NCc1ccnc(-c2ccc(C(F)(F)F)cn2)n1 (centres unmarked) [Example 195, 3-methoxy-2-[({2-[5-(trifluoromethyl)pyridin-2-yl]pyrimidin-4-yl}methyl)amino]propan-1-ol] | > 20 µM
13 | CC(C)[C@H](CO)NCc1nc(N2CCC(F)(F)CC2)ncc1F [Example 231, (2R)-2-({[2-(4,4-difluoropiperidin-1-yl)-5-fluoropyrimidin-4-yl]methyl}amino)-3-methylbutan-1-ol] | 1.53 µM
14 | OC1(CNCc2ccnc(-c3ccc(C(F)(F)F)cc3)n2)CCCC1 [Example 177, 1-{[({2-[4-(trifluoromethyl)phenyl]pyrimidin-4-yl}methyl)amino]methyl}cyclopentanol] | > 20 µM
15 | CC[C@H](C)[C@@H](CO)NCc1cccc(-c2ccc(C(F)(F)F)cc2)n1 [Example 2, (2S,3S)-3-methyl-2-[({6-[4-(trifluoromethyl)phenyl]pyridin-2-yl}methyl)amino]pentan-1-ol] | 3.81 µM
16 | CC(C)[C@H](CO)NCc1nc(-c2cccc(Cl)c2)ccc1F [Example 15, (2R)-2-({[6-(3-chlorophenyl)-3-fluoropyridin-2-yl]methyl}amino)-3-methylbutan-1-ol] | 1.84 µM
17 | CC(C)C[C@H](CO)NCc1ccnc(-c2ccc(C(F)(F)F)cc2)n1 [Example 142, (2R)-4-methyl-2-[({2-[4-(trifluoromethyl)phenyl]pyrimidin-4-yl}methyl)amino]pentan-1-ol] | 7.3 µM
18 | CC1CCC(c2ccc(F)c(CN[C@@H](CO)C(C)C)n2)CC1 (stereo partly drawn) [Example 200, (2R)-2-({[3-fluoro-6-(4-methylcyclohexyl)pyridin-2-yl]methyl}amino)-3-methylbutan-1-ol] | 1.03 µM
19 | CC(C)[C@H](CO)NCc1nc(-c2cccc(C(=O)N3CCSCC3)c2)ccc1F [Example 62, {3-[5-fluoro-6-({[(2R)-1-hydroxy-3-methylbutan-2-yl]amino}methyl)pyridin-2-yl]phenyl}(thiomorpholin-4-yl)methanone] | 4 µM

Row | Compound | IC50
20 | CC(C)[C@H](CO)NCc1nc(-c2ccc3ccn(C)c3c2)ccc1F [Example 64, (2R)-2-({[3-fluoro-6-(1-methyl-1H-indol-6-yl)pyridin-2-yl]methyl}amino)-3-methylbutan-1-ol] | 0.48 µM
21 | O[C@@H]1CCCC[C@@H]1CNCc1ccnc(-c2ccc(C(F)(F)F)cc2)n1 [Example 166, (1R,2R)-2-{[({2-[4-(trifluoromethyl)phenyl]pyrimidin-4-yl}methyl)amino]methyl}cyclohexanol] | > 20 µM
22 | CC(C)[C@H](CO)NCc1nc(N2CCC(F)(F)CC2)ccc1F [Example 92, (2R)-2-({[6-(4,4-difluoropiperidin-1-yl)-3-fluoropyridin-2-yl]methyl}amino)-3-methylbutan-1-ol] | 0.96 µM
23 | CC(C)(O)[C@H](CO)NCc1ccnc(-c2ccc(C(F)(F)F)cn2)n1 [Example 197, (2S)-3-methyl-2-[({2-[5-(trifluoromethyl)pyridin-2-yl]pyrimidin-4-yl}methyl)amino]butane-1.3-diol] | > 20 µM
24 | CC(C)[C@H](CO)NCc1cccc(-c2ccc(F)c(C(F)(F)F)c2)n1 [Example 267, (2R)-2-[({6-[4-fluoro-3-(trifluoromethyl)phenyl]pyridin-2-yl}methyl)amino]-3-methylbutan-1-ol] | 0.18 µM
25 | CC(C)[C@H](CO)NCc1nc(-c2cc(C(F)(F)F)cc(C(F)(F)F)c2)ccc1F [Example 22, (2R)-2-[({6-[3,5-bis(trifluoromethyl)phenyl]-3-fluoropyridin-2-yl}methyl)amino]-3-methylbutan-1-ol] | 1.28 µM
26 | OCC1(NCc2cccc(-c3ccc(F)c(C(F)(F)F)c3)n2)CCCC1 [Example 268, {1-[({6-[4-fluoro-3-(trifluoromethyl)phenyl]pyridin-2-yl}methyl)amino]cyclopentyl}methanol] | 0.42 µM
27 | OC(CNCc1ccnc(-c2ccc(C(F)(F)F)cc2)n1)C(F)(F)F (centres unmarked) [Example 179, 1,1,1-trifluoro-3-[({2-[4-(trifluoromethyl)phenyl]pyrimidin-4-yl}methyl)amino]propan-2-ol] | > 20 µM
28 | CC(C)[C@H](CO)NCc1nc(-c2cc(F)c(F)cc2F)ccc1F [Example 246, (2R)-2-({[3-fluoro-6-(2,4,5-trifluorophenyl)pyridin-2-yl]methyl}amino)-3-methylbutan-1-ol] | 0.16 µM
29 | OCC1(NCc2cccc(-c3ccc(F)c(Cl)c3)n2)CCCC1 [Example 266, [1-({[6-(3-chloro-4-fluorophenyl)pyridin-2-yl]methyl}amino)cyclopentyl]methanol] | 0.39 µM
30 | CC(C)[C@H](CO)NCc1nc(-c2ccc(N3CCN(C)CC3)nc2)ccc1F [Example 254, (2R)-2-({[5-fluoro-6′-(4-methylpiperazin-1-yl)-2,3′-bipyridin-6-yl]methyl}amino)-3-methylbutan-1-ol] | > 20 µM
31 | Cc1ccc(-c2ccc(F)c(CN[C@@H](CO)C(C)C)n2)s1 [Example 243, (2R)-2-({[3-fluoro-6-(5-methylthiophen-2-yl)pyridin-2-yl]methyl}amino)-3-methylbutan-1-ol] | 0.38 µM
32 | CC(C)[C@H](CO)NCc1nc(-c2ccc(C(F)(F)F)cn2)ccc1F [Example 73, (2R)-2-({[5-fluoro-5′-(trifluoromethyl)-2,2′-bipyridin-6-yl]methyl}amino)-3-methylbutan-1-ol] | 0.14 µM
33 | CC(C)[C@H](CO)NCc1nc(C2CCC(C(C)(C)C)CC2)ccc1F (stereo partly drawn) [Example 213, (2R)-2-({[6-(4-tert-butylcyclohexyl)-3-fluoropyridin-2-yl]methyl}amino)-3-methylbutan-1-ol] | 0.79 µM
34 | CC(C)[C@H](CO)NCc1nc(-c2cc3ccccc3n2C)ccc1F [Example 249, (2R)-2-({[3-fluoro-6-(1-methyl-1H-indol-2-yl)pyridin-2-yl]methyl}amino)-3-methylbutan-1-ol] | 0.35 µM
35 | CCN(CC)S(=O)(=O)c1cccc(-c2ccc(F)c(CN[C@@H](CO)C(C)C)n2)c1 [Example 51, N,N-diethyl-3-[5-fluoro-6-({[(2R)-1-hydroxy-3-methylbutan-2-yl]amino}methyl)pyridin-2-yl]benzenesulfonamide] | 0.5 µM
36 | Cc1ccc(S(=O)(=O)N(C)C)cc1-c1ccc(F)c(CN[C@@H](CO)C(C)C)n1 [Example 50, 3-[5-fluoro-6-({[(2R)-1-hydroxy-3-methylbutan-2-yl]amino}methyl)pyridin-2-yl]-N,N,4-trimethylbenzenesulfonamide] | 1.77 µM
37 | OCC1(CNCc2ccnc(-c3ccc(C(F)(F)F)cc3)n2)CCOCC1 [Example 161] | > 20 µM
38 | CC(C)[C@H](CO)NCc1nc(-c2ccnn2C)ccc1F [Example 252, (2R)-2-({[3-fluoro-6-(1-methyl-1H-pyrazol-5-yl)pyridin-2-yl]methyl}amino)-3-methylbutan-1-ol] | > 20 µM
